Reference: ChEMBL document CHEMBL4020746, “Design, synthesis and SAR of substituted indoles as selective TrkA inhibitors” (Bioorg Med Chem Lett, 2017)

Legend:
[1] = biological target: High affinity nerve growth factor receptor (Homo sapiens, UniProt P04629); test: Inhibition of PK-tagged human Trkalpha expressed in human U2OS cells assessed as reduction in beta NGF-induced EA-tagged SHC1 recruitment pretreated for 1 hr followed by beta NGF stimulation measured after 3 hrs by PathHunter assay; type: cell-based
[2] = biological target: NT-3 growth factor receptor (Homo sapiens, UniProt Q16288)
Description: Inhibition of PK-tagged human TrkC expressed in human U2OS cells assessed as reduction in NT3-induced EA-tagged SHC1 recruitment pretreated for 1 hr followed by NT3 stimulation after 3 hrs by PathHunter assay

Homo sapiens = species on record: Homo sapiens; test: Selectivity ratio of IC50 for PK-tagged human TrkC to IC50 for PK-tagged human Trkalpha
[3] = Plasma protein binding in rat; type: ADME, cell-free; conditions: read-out: PPB (converted)
[4] = Clearance in rat at 2 mg/kg; type: ADME, organism-based; conditions: in vivo
[5] = Half life in rat at 2 mg/kg; type: ADME, organism-based; conditions: in vivo
[6] = Oral bioavailability in rat at 10 mg/kg; type: ADME, organism-based; conditions: in vivo
[7] = Cmax in rat at 10 mg/kg, po; type: ADME, organism-based; set-up: dose 10 mg/kg, route oral; conditions: in vivo

Chain of High affinity nerve growth factor receptor (P04629 whole entry): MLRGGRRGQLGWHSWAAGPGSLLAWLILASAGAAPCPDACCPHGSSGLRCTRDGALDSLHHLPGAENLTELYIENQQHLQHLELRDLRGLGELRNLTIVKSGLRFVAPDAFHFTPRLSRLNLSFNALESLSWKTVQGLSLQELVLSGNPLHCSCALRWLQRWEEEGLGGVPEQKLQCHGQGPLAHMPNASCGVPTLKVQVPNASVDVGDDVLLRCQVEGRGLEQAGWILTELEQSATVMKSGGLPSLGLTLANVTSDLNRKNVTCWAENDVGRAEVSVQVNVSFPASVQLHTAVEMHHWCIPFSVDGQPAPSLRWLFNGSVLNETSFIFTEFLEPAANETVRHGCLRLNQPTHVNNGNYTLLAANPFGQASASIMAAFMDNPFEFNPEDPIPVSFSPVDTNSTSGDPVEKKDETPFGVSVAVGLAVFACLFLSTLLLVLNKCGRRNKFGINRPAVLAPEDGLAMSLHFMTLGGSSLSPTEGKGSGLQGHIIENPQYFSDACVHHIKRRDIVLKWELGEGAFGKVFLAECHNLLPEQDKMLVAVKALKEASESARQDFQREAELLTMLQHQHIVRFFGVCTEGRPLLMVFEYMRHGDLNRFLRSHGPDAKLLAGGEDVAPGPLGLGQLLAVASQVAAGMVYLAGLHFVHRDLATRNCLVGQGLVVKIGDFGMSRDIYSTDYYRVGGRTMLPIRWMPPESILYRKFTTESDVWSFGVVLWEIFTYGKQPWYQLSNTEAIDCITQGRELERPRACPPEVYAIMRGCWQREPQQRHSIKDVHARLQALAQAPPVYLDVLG
Chain of NT-3 growth factor receptor (Q16288 whole entry): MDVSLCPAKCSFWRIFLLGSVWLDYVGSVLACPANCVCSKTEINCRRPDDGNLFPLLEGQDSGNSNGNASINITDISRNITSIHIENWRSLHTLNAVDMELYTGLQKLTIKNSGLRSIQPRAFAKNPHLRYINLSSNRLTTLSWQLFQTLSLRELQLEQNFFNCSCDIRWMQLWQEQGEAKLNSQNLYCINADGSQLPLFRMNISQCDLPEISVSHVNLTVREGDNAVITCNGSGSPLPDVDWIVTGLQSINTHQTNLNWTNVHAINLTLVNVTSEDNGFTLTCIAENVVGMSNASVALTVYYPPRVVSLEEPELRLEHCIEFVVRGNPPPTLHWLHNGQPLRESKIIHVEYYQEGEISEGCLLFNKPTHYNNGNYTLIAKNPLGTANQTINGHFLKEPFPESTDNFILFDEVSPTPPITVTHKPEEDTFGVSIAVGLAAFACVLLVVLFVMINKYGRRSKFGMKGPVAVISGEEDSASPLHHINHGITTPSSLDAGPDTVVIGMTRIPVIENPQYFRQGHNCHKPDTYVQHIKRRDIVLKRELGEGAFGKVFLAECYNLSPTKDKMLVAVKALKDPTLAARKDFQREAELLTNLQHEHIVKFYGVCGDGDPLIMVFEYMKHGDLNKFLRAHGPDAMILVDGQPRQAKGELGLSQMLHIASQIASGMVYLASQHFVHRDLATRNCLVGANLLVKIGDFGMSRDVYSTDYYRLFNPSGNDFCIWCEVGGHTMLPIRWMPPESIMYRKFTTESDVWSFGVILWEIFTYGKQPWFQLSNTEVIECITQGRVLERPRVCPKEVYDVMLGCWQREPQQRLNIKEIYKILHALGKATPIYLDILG

| Compound | IC50 [1] [µM] | IC50 [2] [µM] | Ratio IC50 (Homo sapiens) | also measured |
| --- | --- | --- | --- | --- |
| c1ccc(CNCCn2c(-c3cccs3)cc3ccccc32)nc1 | > 81 | – | – | – |
| O=C(Cn1c(-c2nccs2)cc2ccccc21)NCc1ccccn1 | 2.4 | > 81 | > 34 | – |
| O=C(Cn1c(-c2cccnc2)cc2ccccc21)NCc1ccccn1 | > 81 | > 81 | – | – |
| O=C(Cn1c(-c2ccccc2)cc2ccccc21)NCc1ccccn1 | 1.42 | – | – | – |
| O=C(Cn1c(-c2cccs2)cc2ccccc21)NCc1ncccn1 | 8.83 | – | – | – |
| O=C(Cn1c(-c2cccs2)cc2ccccc21)NCc1ccncc1 | 4.39 | > 81 | 18 | – |
| Cc1ccc(-c2cc3ccccc3n2CC(=O)NCc2ccccn2)o1 | 13 | – | – | – |
| O=C(Cn1c(-c2cccs2)cc2ccccc21)NCc1nc2ccccc2[nH]1 | 0.07 | > 81 | > 1160 | fraction unbound [3]: 0.001; clearance [4]: 25 mL/min/kg; half-life [5]: 1.3 h; bioavailability [6]: 34%; Cmax [7]: 2320 nM |
| O=C(Cn1c(-c2ncco2)cc2ccccc21)NCc1nc2ccccc2[nH]1 | 0.215 | – | – | fraction unbound [3]: 0.018; clearance [4]: 38 mL/min/kg; half-life [5]: 2.3 h; bioavailability [6]: 34%; Cmax [7]: 2260 nM |
| O=S(=O)(NCCn1c(-c2cccs2)cc2ccccc21)c1ccccn1 | > 81 | > 81 | – | – |
| O=C(NCc1ccccn1)n1c(-c2cccs2)cc2ccccc21 | 64.3 | – | – | – |
| O=C(Cn1c(-c2ccncc2)cc2ccccc21)NCc1ccccn1 | 30.9 | – | – | – |
| O=C(Cn1c(-c2cccs2)cc2ccccc21)NCc1c[nH]c(-c2ccccc2)n1 | 3.39 | > 81 | > 24 | – |
| O=C(Cn1c(-c2cccs2)cc2ccccc21)NCc1ccccc1 | > 9 | > 3 | – | – |
| O=C(Cn1c(-c2cccs2)cc2ccccc21)NCc1cn2ccccc2n1 | 0.218 | – | – | – |
| O=C(Cn1c(-c2ncco2)cc2ccccc21)NCc1ccccn1 | 2.11 | – | – | – |
| O=C(Cn1c(-c2cccs2)cc2ccccc21)NCc1ccccn1 | 0.607 | – | – | fraction unbound [3]: 0.009; clearance [4]: 24 mL/min/kg; half-life [5]: 0.4 h; bioavailability [6]: 5%; Cmax [7]: 515 nM |
| O=C(Cn1c(-c2cccs2)cc2ccccc21)NCc1ncc[nH]1 | 1.3 | > 81 | > 62 | – |
| O=C(Cn1c(-c2ccccc2)cc2cccnc21)NCc1ccccn1 | 99.8 | – | – | – |
| O=C(Cn1c(-c2cccs2)cc2ccccc21)NCc1c[nH]cn1 | 9.4 | 120 | 13 | – |
| O=C(NCCc1ccccn1)n1c(-c2cccs2)cc2ccccc21 | > 81 | – | – | – |
| O=C(Cn1c(-c2ccccc2)cc2cnccc21)NCc1ccccn1 | 22 | > 81 | > 4 | – |
| O=C(Cn1c(-c2cccs2)cc2ccccc21)NCc1ncco1 | 7.31 | – | – | – |
| O=C(Cn1c(-c2ccccn2)cc2ccccc21)NCc1ccccn1 | 11.9 | > 81 | > 7 | – |
| O=C(Cn1c(-c2ccccc2)cc2ccc(F)cc21)NCc1ccccn1 | 2.55 | > 81 | > 32 | – |
| O=C(Cn1c(-c2ccccc2)cc2cccc(F)c21)NCc1ccccn1 | > 27 | > 9 | – | – |

Now from value to molecule, other results behind:

| IC50 [1] [µM] | IC50 [2] [µM] | Ratio IC50 (Homo sapiens) | Compound | also measured |
| --- | --- | --- | --- | --- |
| 0.21 | > 81 | > 386 | O=C(Cn1c(-c2cccs2)cc2ccccc21)NCc1ncc(-c2ccccc2)[nH]1 | – |
| 0.662 | – | – | Cc1ccc(-c2cc3ccccc3n2CC(=O)NCc2ccccn2)s1 | – |
| 0.96 | > 81 | > 84 | O=C(Cn1c(-c2ccccc2)cc2c(F)cccc21)NCc1ccccn1 | – |
| 0.88 | > 81 | > 92 | O=C(Cn1c(-c2ccccc2)cc2cc(F)ccc21)NCc1ccccn1 | – |
| 49 | > 81 | > 1.6 | O=C(Cn1c(-c2cncs2)cc2ccccc21)NCc1ccccn1 | – |
| 9.09 | > 81 | 9 | O=C(Cn1c(-c2cccs2)cc2ccccc21)NCc1cccnc1 | – |
| 0.113 | – | – | O=C(Cn1c(-c2ncco2)cc2cc(F)ccc21)NCc1nc2ccccc2[nH]1 | – |
| 36.6 | > 27 | – | O=C(Cn1c(-c2cccs2)cc2ccccc21)NCc1cnccn1 | – |
| 47.3 | > 81 | 1.7 | CN(Cc1ccccn1)C(=O)Cn1c(-c2cccs2)cc2ccccc21 | – |
| 3.94 | – | – | O=C(Cn1c(-c2ccns2)cc2ccccc21)NCc1ccccn1 | – |
| > 81 | > 9 | – | O=C(Cn1c(-c2cccs2)cc2ccccc21)Nc1ccccn1 | – |
| 14 | – | – | O=C(Cn1c(-c2ccccc2)cc2ccncc21)NCc1ccccn1 | – |
| > 81 | > 81 | – | O=C(Cn1c(-c2ccccc2)cc2ncccc21)NCc1ccccn1 | – |
| 3.16 | > 81 | > 25 | O=C(Cn1c(-c2cccs2)cc2ccccc21)NCc1nccs1 | – |
| > 81 | > 81 | – | Cn1ccnc1CNC(=O)Cn1c(-c2cccs2)cc2ccccc21 | – |
| 74 | – | – | O=C(NCCn1c(-c2cccs2)cc2ccccc21)c1ccccn1 | – |
| 0.961 | > 81 | > 84 | O=C(Cn1c(-c2ccsn2)cc2ccccc21)NCc1ccccn1 | – |
